pIC50: −log10 of the molar value.

The values that follow come from PMC6795057, “Plumbagin Prevents Secretory Diarrhea by Inhibiting CaCC and CFTR Channel Activities” (Frontiers in Pharmacology, 2019).

Test [1] deals with CFTR (cystic fibrosis transmembrane conductance regulator) (Homo sapiens, UniProt P13569). In words: short-circuit current in HT-29 cells, FSK-stimulated; also inhibits current with genistein (direct activator, IC50 […]). In kind it is cell-based.
Test [2] has as its target T1, TMEM16A (transmembrane protein 16A) (Homo sapiens, UniProt Q5XXA6).
T1 construct: gene ANO1
T1 sequence (Q5XXA6 1-986): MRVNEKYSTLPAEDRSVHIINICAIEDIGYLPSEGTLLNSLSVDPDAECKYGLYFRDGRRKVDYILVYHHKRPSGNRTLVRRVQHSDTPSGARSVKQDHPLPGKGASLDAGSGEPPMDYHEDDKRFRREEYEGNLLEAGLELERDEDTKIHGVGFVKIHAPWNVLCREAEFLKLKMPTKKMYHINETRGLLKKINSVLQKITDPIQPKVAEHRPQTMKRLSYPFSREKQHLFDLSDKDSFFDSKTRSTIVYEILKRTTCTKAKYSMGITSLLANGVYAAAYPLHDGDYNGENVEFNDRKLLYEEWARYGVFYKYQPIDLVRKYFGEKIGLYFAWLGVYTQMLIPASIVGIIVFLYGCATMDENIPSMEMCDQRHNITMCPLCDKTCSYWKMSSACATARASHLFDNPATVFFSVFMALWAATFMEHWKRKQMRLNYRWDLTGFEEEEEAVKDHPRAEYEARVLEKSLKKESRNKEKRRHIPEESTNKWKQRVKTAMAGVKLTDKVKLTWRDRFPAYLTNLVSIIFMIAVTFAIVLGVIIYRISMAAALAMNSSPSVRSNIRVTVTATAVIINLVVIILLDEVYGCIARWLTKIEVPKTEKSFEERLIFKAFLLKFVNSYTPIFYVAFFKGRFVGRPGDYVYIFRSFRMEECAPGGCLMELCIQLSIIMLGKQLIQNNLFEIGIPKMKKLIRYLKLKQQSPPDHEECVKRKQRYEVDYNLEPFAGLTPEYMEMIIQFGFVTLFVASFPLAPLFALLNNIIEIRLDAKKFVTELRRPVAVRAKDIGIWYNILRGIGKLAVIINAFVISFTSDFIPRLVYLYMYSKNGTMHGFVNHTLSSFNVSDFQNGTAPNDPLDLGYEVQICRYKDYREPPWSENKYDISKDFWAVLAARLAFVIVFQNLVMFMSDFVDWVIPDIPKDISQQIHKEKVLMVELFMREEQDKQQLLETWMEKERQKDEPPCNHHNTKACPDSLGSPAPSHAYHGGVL
The experiment in a line: YFP iodide-influx fluorescence quenching in TMEM16A-expressing FRT cells; Eact-stimulated short-circuit current. It counts as cell-based.

Chain of CFTR (cystic fibrosis transmembrane conductance regulator) (P13569 whole entry): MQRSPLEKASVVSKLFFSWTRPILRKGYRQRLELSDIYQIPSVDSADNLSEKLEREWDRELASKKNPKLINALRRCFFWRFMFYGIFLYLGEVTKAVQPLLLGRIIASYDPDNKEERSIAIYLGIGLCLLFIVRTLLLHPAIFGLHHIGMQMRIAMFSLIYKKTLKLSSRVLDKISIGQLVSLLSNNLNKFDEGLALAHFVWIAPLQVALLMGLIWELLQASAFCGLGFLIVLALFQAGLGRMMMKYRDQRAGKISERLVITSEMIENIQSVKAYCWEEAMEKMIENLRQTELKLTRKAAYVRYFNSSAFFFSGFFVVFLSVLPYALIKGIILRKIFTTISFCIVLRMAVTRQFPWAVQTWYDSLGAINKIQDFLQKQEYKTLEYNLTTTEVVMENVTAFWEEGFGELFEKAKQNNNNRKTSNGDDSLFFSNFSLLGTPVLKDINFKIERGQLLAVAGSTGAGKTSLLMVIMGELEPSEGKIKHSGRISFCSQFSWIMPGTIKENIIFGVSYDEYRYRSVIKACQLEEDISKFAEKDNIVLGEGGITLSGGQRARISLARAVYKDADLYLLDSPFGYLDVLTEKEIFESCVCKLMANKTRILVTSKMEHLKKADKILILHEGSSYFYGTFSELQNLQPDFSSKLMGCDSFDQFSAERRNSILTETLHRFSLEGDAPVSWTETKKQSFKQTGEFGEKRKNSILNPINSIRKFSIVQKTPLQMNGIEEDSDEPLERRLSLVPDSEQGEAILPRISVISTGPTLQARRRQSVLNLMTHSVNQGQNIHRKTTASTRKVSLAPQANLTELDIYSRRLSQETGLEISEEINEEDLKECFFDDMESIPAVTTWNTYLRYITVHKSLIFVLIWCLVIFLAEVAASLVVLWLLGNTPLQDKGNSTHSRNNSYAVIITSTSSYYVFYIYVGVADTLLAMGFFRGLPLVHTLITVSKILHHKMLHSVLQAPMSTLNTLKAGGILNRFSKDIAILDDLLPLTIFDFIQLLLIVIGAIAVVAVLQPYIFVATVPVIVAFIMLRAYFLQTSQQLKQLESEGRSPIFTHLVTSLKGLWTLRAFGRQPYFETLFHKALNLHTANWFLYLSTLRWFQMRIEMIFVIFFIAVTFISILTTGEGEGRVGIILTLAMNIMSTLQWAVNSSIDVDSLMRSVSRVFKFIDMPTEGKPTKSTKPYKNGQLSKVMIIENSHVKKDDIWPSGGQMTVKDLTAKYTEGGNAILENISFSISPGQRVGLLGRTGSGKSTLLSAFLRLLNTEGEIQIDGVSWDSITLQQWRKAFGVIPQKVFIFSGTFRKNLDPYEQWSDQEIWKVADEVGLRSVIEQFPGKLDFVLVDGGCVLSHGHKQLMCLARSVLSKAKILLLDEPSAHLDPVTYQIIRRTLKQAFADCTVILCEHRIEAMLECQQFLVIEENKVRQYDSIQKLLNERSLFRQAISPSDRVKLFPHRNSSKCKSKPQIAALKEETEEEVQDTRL

In the case of `CC1=CC(=O)c2c(O)cccc2C1=O` [plumbagin], the pIC50 was 5.41 in test [1] and approximately 4.90 in test [2].
